Measurements reported in patent publication US20070093549A1, “Methods for preparation of ladostigil tartrate crystalline form A1” (priority 2005, published 2007).

What was measured:
[1] = tested on: animal models of Alzheimer's disease; conditions: background statement with literature references; cited from earlier work
[2] = Exposure of form A1 to various humidity conditions (TGA and crystal form); type: physicochemical
Protocol: (§1) X-Ray powder diffraction data were obtained by a SCINTAG powder X-Ray diffractometer model X'TRA equipped with a solid state detector. Copper radiation of 1.5418 Å was used. A round aluminum sample holder with round zero background quartz plate, with cavity of 25 (diameter)*0.5 (depth) mm was used.
TGA analysis was done using a Mettler M3 meter. The weight of the samples was about 10 mg. The samples were scanned at a rate of 10° C./min from 25° C. to 200° C. The oven was constantly purged with nitrogen gas at a flow rate of 40 ml/min. Standard 70 μl alumina crucibles covered by lids with 1 hole were used.
Ladostigil tartrate form A1 was exposed to various humidity conditions at room temperature for 14 days. TGA was performed, and crystal form was analyzed.

[3] = Effect of micronization, pressing and grinding (XRD); type: physicochemical; conditions: pressing 1 minute at 100 metric tons, by XRD
Protocol: as §1
The effects of micronization, pressing (1 minute at 100 metric tons) and grinding were determined by XRD and the following results were obtained: […]

[4] = RH 100%, room temperature, 14 days

| Compound | efficacy in animal models of Alzheimer's disease [1] | TGA ([2]; RH 60%, room temperature, 14 days) | TGA ([2]; RH 80%, room temperature, 14 days) | Resulting form [2, 4] | TGA [2, 4] | water content change ([2]; after exposure to 100% RH for 14 days) | hygroscopicity ([2]; concluded from humidity exposure results) | crystallinity after pressing [3] |
| --- | --- | --- | --- | --- | --- | --- | --- | --- |
| C#CCN[C@@H]1CCc2ccc(OC(=O)N(C)CC)cc21 [Ladostigil, ethyl-methyl-carbamic acid (R)-3-prop-2-ynylamino-indan-5-yl ester] | effective | – | – | – | – | – | – | – |
| carbamic acid, ethylmethyl-, (3R)-2,3-dihydro-3-(2-propynylamino)-1H-inden-5-yl ester, (2R,3R)-2,3-dihydroxybutanedioate (2:1) [Ladostigil tartrate form A1] | – | 0.2 | 0.1 | transformed to a mixture of Form A and A1 | 0.1 | did not change significantly | neither Form A nor Form A1 is hygroscopic | lose some extent of crystallinity |
